Test results: patent US8192962B2, “Processes for detecting toxic substances” (Daikin Industries, Ltd., priority 2001, dated 2012)

System: Detoxification protein genes
Experiment: DNA chip mRNA expression in yeast, detoxification protein genes (Table 8)
Assay type: cell-based, Saccharomyces cerevisiae S288C
Procedure: Yeast (Saccharomyces cerevisiae S288C (α SUC2mal mel gap2 CUP1)) were incubated at 25° C. on YPD medium (yeast extract 1%, polypepton 2%, glucose 2%). One of toxic chemical substances was added to the cells at logarithmic growth phase, and the cells were further incubated for two hours. Cells were cultured without any chemical substance in the same condition, and were used as control. Concentrations of the chemical substances were defined to inhibit the growth of the yeast but not lead to death.
After completion of the incubation, the culture was centrifuged to collect the cells. To the cells, sodium acetate buffer (50 mM sodium acetate, 10 mM EDTA, 1% SDS) was added, and the mixture was shaken at 65° C. for five minutes, followed by returning to room temperature, and obtaining the supernatant, of which the procedures were repeated two times. To the supernatant, ½ amount of a solution of phenol/chloroform was added, and the mixture was centrifuged to give a supernatant, which was added with an equal amount of chloroform, and the mixture was centrifuged to give a supernatant. To the supernatant, an equal amount of isopropanol containing 0.3 M sodium acetate was added, and the mixture was allowed to stand at room temperature for 30 minutes, after which the mixture was centrifuged to give a sediment of the whole RNAs. Seventy % ethanol was added to the sediment, and the mixture was again centrifuged to give a sediment, which was then dried and dissolved in water. mRNA was isolated from the whole RNAs as followings. In view of the fact that a poly A chain is attached to the 3′ terminus of mRNA, a polynucleotide having a poly T structure which was immobilized on the surface of latex beads was used to trap the mRNA, and then the mRNA was washed and eluted with spine column (Oligotex-dT30<Super>mRNA Purification Kit, Takara). Reverse transcription of the mRNA was conducted with a reverse transcriptase (Super Script II Reverse Transcriptase; catalogue No. 18064-014, GibcoBRL) using fluorescence-labeled nucleotides to give cDNAs that were introduced with Cy3-dUTP or Cy5-dUTP during the reverse transcription.
The labeled cDNAs were dissolved in TE buffer (10mM Tris-HCl/1 mM EDTA, pH8.0), and the solution was dropped on the DNA chip containing the whole genes of yeast (DNA Chip Research Inc. Japan) so that the cDNAs were hybridized on the DNA chip at 65° C. for over 12 hours. The fluoresces intensity of the DNA chip was read with a scanner, and the ratio relative to the fluorescence intensity resulting from the absence of chemical substance was estimated as the following, which is shown in Tables 1 to 9: […]

[Cl][Hg][Cl] [(3), HgCl2]
The level of expressed mRNA in the presence of chemical substance/The level of expressed mRNA in the absence of chemical substance (yeast gene YBL064C): 3.9
The level of expressed mRNA in the presence of chemical substance/The level of expressed mRNA in the absence of chemical substance (yeast gene YBR008C): 4.9
The level of expressed mRNA in the presence of chemical substance/The level of expressed mRNA in the absence of chemical substance (yeast gene YBR145W): 2.8
The level of expressed mRNA in the presence of chemical substance/The level of expressed mRNA in the absence of chemical substance (yeast gene YBR244W): 2.0
The level of expressed mRNA in the presence of chemical substance/The level of expressed mRNA in the absence of chemical substance (yeast gene YBR293W): 1.0
The level of expressed mRNA in the presence of chemical substance/The level of expressed mRNA in the absence of chemical substance (yeast gene YCL035C): 1.5
The level of expressed mRNA in the presence of chemical substance/The level of expressed mRNA in the absence of chemical substance (yeast gene YCL069W): 0.9
The level of expressed mRNA in the presence of chemical substance/The level of expressed mRNA in the absence of chemical substance (yeast gene YCR083W): 1.5
The level of expressed mRNA in the presence of chemical substance/The level of expressed mRNA in the absence of chemical substance (yeast gene YDL100C): 1.1
The level of expressed mRNA in the presence of chemical substance/The level of expressed mRNA in the absence of chemical substance (yeast gene YDL168W): 2.1
The level of expressed mRNA in the presence of chemical substance/The level of expressed mRNA in the absence of chemical substance (yeast gene YDR256C): 0.7
The level of expressed mRNA in the presence of chemical substance/The level of expressed mRNA in the absence of chemical substance (yeast gene YDR453C): 4.4
The level of expressed mRNA in the presence of chemical substance/The level of expressed mRNA in the absence of chemical substance (yeast gene YDR513W): 2.3
The level of expressed mRNA in the presence of chemical substance/The level of expressed mRNA in the absence of chemical substance (yeast gene YDR538W): 2.4
The level of expressed mRNA in the presence of chemical substance/The level of expressed mRNA in the absence of chemical substance (yeast gene YEL027W): 3.4
The level of expressed mRNA in the presence of chemical substance/The level of expressed mRNA in the absence of chemical substance (yeast gene YEL065W): 1.2
The level of expressed mRNA in the presence of chemical substance/The level of expressed mRNA in the absence of chemical substance (yeast gene YER185W): 2.1
The level of expressed mRNA in the presence of chemical substance/The level of expressed mRNA in the absence of chemical substance (yeast gene YFL050C): 1.1
The level of expressed mRNA in the presence of chemical substance/The level of expressed mRNA in the absence of chemical substance (yeast gene YGL013C): 0.8
The level of expressed mRNA in the presence of chemical substance/The level of expressed mRNA in the absence of chemical substance (yeast gene YGL254W): 0.8
The level of expressed mRNA in the presence of chemical substance/The level of expressed mRNA in the absence of chemical substance (yeast gene YGR088W): 7.7
The level of expressed mRNA in the presence of chemical substance/The level of expressed mRNA in the absence of chemical substance (yeast gene YGR138C): 1.0
The level of expressed mRNA in the presence of chemical substance/The level of expressed mRNA in the absence of chemical substance (yeast gene YGR197C): 2.5
The level of expressed mRNA in the presence of chemical substance/The level of expressed mRNA in the absence of chemical substance (yeast gene YGR209C): 3.5
The level of expressed mRNA in the presence of chemical substance/The level of expressed mRNA in the absence of chemical substance (yeast gene YGR224W): 1.2
The level of expressed mRNA in the presence of chemical substance/The level of expressed mRNA in the absence of chemical substance (yeast gene YHL040C): 1.5
The level of expressed mRNA in the presence of chemical substance/The level of expressed mRNA in the absence of chemical substance (yeast gene YHL047C): 1.0
The level of expressed mRNA in the presence of chemical substance/The level of expressed mRNA in the absence of chemical substance (yeast gene YHR008C): 4.8
The level of expressed mRNA in the presence of chemical substance/The level of expressed mRNA in the absence of chemical substance (yeast gene YHR048W): 1.4
The level of expressed mRNA in the presence of chemical substance/The level of expressed mRNA in the absence of chemical substance (yeast gene YHR053C): 0.7
The level of expressed mRNA in the presence of chemical substance/The level of expressed mRNA in the absence of chemical substance (yeast gene YHR055C): 0.8
The level of expressed mRNA in the presence of chemical substance/The level of expressed mRNA in the absence of chemical substance (yeast gene YIR002C): 0.5
The level of expressed mRNA in the presence of chemical substance/The level of expressed mRNA in the absence of chemical substance (yeast gene YIR038C): 4.6
The level of expressed mRNA in the presence of chemical substance/The level of expressed mRNA in the absence of chemical substance (yeast gene YJL101C): 2.1
The level of expressed mRNA in the presence of chemical substance/The level of expressed mRNA in the absence of chemical substance (yeast gene YJR104C): 2.9
The level of expressed mRNA in the presence of chemical substance/The level of expressed mRNA in the absence of chemical substance (yeast gene YKL026C): 1.2
The level of expressed mRNA in the presence of chemical substance/The level of expressed mRNA in the absence of chemical substance (yeast gene YKL064W): 0.4
The level of expressed mRNA in the presence of chemical substance/The level of expressed mRNA in the absence of chemical substance (yeast gene YKR066C): 5.5
The level of expressed mRNA in the presence of chemical substance/The level of expressed mRNA in the absence of chemical substance (yeast gene YKR105C): 0.9
The level of expressed mRNA in the presence of chemical substance/The level of expressed mRNA in the absence of chemical substance (yeast gene YKR106W): 2.1
The level of expressed mRNA in the presence of chemical substance/The level of expressed mRNA in the absence of chemical substance (yeast gene YLL028W): 4.6
The level of expressed mRNA in the presence of chemical substance/The level of expressed mRNA in the absence of chemical substance (yeast gene YLL057C): 1.8
The level of expressed mRNA in the presence of chemical substance/The level of expressed mRNA in the absence of chemical substance (yeast gene YLL060C): 2.3
The level of expressed mRNA in the presence of chemical substance/The level of expressed mRNA in the absence of chemical substance (yeast gene YLR043C): 2.0
The level of expressed mRNA in the presence of chemical substance/The level of expressed mRNA in the absence of chemical substance (yeast gene YLR046C): 0.9
The level of expressed mRNA in the presence of chemical substance/The level of expressed mRNA in the absence of chemical substance (yeast gene YML028W): 4.4
The level of expressed mRNA in the presence of chemical substance/The level of expressed mRNA in the absence of chemical substance (yeast gene YML116W): 1.5
The level of expressed mRNA in the presence of chemical substance/The level of expressed mRNA in the absence of chemical substance (yeast gene YMR015C): 1.9
The level of expressed mRNA in the presence of chemical substance/The level of expressed mRNA in the absence of chemical substance (yeast gene YMR038C): 1.8
The level of expressed mRNA in the presence of chemical substance/The level of expressed mRNA in the absence of chemical substance (yeast gene YNL239W): 2.4
The level of expressed mRNA in the presence of chemical substance/The level of expressed mRNA in the absence of chemical substance (yeast gene YNL241C): 4.3
The level of expressed mRNA in the presence of chemical substance/The level of expressed mRNA in the absence of chemical substance (yeast gene YNL259C): 1.1
The level of expressed mRNA in the presence of chemical substance/The level of expressed mRNA in the absence of chemical substance (yeast gene YOL158C): 2.4
The level of expressed mRNA in the presence of chemical substance/The level of expressed mRNA in the absence of chemical substance (yeast gene YOR031W): 1.3
The level of expressed mRNA in the presence of chemical substance/The level of expressed mRNA in the absence of chemical substance (yeast gene YOR153W): 5.1
The level of expressed mRNA in the presence of chemical substance/The level of expressed mRNA in the absence of chemical substance (yeast gene YOR247W): 3.6
The level of expressed mRNA in the presence of chemical substance/The level of expressed mRNA in the absence of chemical substance (yeast gene YOR251C): 1.3
The level of expressed mRNA in the presence of chemical substance/The level of expressed mRNA in the absence of chemical substance (yeast gene YOR273C): 1.7
The level of expressed mRNA in the presence of chemical substance/The level of expressed mRNA in the absence of chemical substance (yeast gene YPL163C): 1.4
The level of expressed mRNA in the presence of chemical substance/The level of expressed mRNA in the absence of chemical substance (yeast gene YPR200C): 0.8
